The results in this text go back to patent publication US20230192772A1, “ANTIMICROBIAL PEPTIDES AND USES THEREOF” (SORBONNE UNIVERSITE, priority 2016, published 2023).

What all share (type): cell-based
The test system of data set [1] is Pseudomonas aeruginosa ATCC 9027. Nature of the data set: MIC/MBC (Example 10, MH medium). The settings on record: Table 5; P. aeruginosa ATCC 9027. The protocol:
(§1) The MIC is determined using a growth inhibition test in liquid medium. The MIC is defined as being the lowest peptide concentration capable of inhibiting the bacterial strain tested, after incubation for 18 h at 37° C. The test was carried out in a sterile microtitration plate containing 96 wells. A series of increasing concentrations of each peptide (0.2 to 100 µM) was prepared beforehand in sterile MilliQ water. In each well, 10 µL of peptide was incubated with 90 µL of bacterial suspension (10^7 cfu/mL) in yeast extract-free LB medium. The microplate was incubated at 37° C. for 18 h. The bacterial growth was evaluated by measuring the OD at 620 nm using a plate reader.
(§2) The negative growth inhibition control was obtained by replacing the solution containing the peptide by sterile MilliQ water. The positive control suitable for completely inhibiting the growth of the bacterial strains was obtained by replacing the solution containing the peptide by 10 µL of formaldehyde.
(§3) The results are interpreted by calculating the percentage of bacterial growth in each well according to the formula:
(§4) %Growth = (OD well - OD of T0)/(OD of T100-OD of T0)*100 where
(§5) • OD of T100 = OD of growth control (bacterial suspension free from sample under test, 100% growth), • OD of T0 = OD of sterility control (culture medium + bacterium + 10 µL formaldehyde, 0% growth) and • OD well = OD of well for which it is sought to calculate the growth percentage (bacterial suspension + peptide under test).
(§6) The MBC is defined as being the minimum peptide concentration leaving no surviving bacteria of the inoculum after incubation at 37° C. for 24 hours. This test consists of smearing the contents of the well wherein the peptide has inhibited bacterial growth on a Petri dish (LB agar), followed by incubation for 24 h at 37° C.
(§7) A 10 mL preculture in Muller-Hinton (MH) medium is prepared by inoculating a colony of the bacterial strain of interest. The preculture is incubated at 37° C. under stirring overnight. The culture is subcultured to 1:100 under the same conditions. The culture concentration is evaluated by measuring the turbidity at 600 nm (OD600 nm 1.0 = 5 × 10^8 CFU/mL for E. coli (Gram-negative bacteria) and 1.5 × 10^8 CFU/mL for S. aureus (Gram-positive bacteria). Once the exponential growth phase (OD600 nm = 0.3 - 0.7) has been achieved, the cultures are diluted in MH medium so as to obtain 10^6 CFU/mL (final inoculum concentration).
(§8) The MIC and the MBC were determined as per the protocol described in part 2.1 of Example 2.

Data set [2] has as its system Staphylococcus aureus ATCC 6538. Nature of the data set: MIC/MBC (Example 10, MH medium). The settings on record: Table 5; S. aureus ATCC 6538. The protocol:
as §1, §2, §3, §4, §5, §6, §7, §8

For data set [3], the system named is Enterococcus faecalis CIP 103015. The experiment in a line: MIC/MBC (Example 10, MH medium). The settings on record: Table 5; E. faecalis CIP 103015. The protocol: as §1, §2, §3, §4, §5, §6, §7, §8
Data set [4] concerns Escherichia coli ATCC 8739. Nature of the data set: MIC/MBC (Example 10, MH medium). The settings on record: Table 5; E. coli ATCC 8739. The protocol:
as §1, §2, §3, §4, §5, §6, §7, §8

The nature of data set [5]: Cytotoxic effects on immune cells obtained from mouse bone marrow. As to conditions: mouse immune cells originating from bone marrow, read-out: LC50. As for the experimental part: (§9) The mouse immune cells are obtained from C57BL/6 or Balb/c mouse bone marrow. The peptides are incubated at 37° C., 5% CO2 in the presence of 500,000 immune cells in RPMI medium at varied concentrations for 2 hours. Peptide-free cells are used as the negative control and cells in the presence of DMSO (30%) are used as the positive control. After incubation, the cells are washed then labelled with Trypan blue so as to measure the cell viability by microscope counting. The LC50 is then calculated as being the concentration of DA2N, K12A and DANa peptides inducing the death of 50% of the immune cells.

Data set [6] relates to immune cells obtained from mouse bone marrow. Described as above. As to conditions: 12.5 µM; 2 hours. The protocol: as §9

Converted amounts (≈) assume the structure as drawn. Square brackets hold non-standard residues; d marks the D form. Ends that are not written are not given here. Peptide text beside a SMILES is read from it.

Regarding “ALWKTLLKKVGKVAGKAVLNAVTNMANQN-NH2 [DA2Na]”, the MBC in data set [1] is reported as 1.6 µM; in data set [2] it was 1.6 µM; in data set [3] it was 3.1 µM; in data set [4] it was 0.8 µM. In addition, the MIC came out at 1.6 µM in data set [1], 0.8 µM in data set [2], 3.1 µM in data set [3] and 0.8 µM in data set [4]. Moreover, the CC50 at 2 hours in data set [5] stood at 3.75 µM.

For ALWDTLLKKVGKVAGKAVLNAVTNMANQN [K4D], the MBC worked out at 25 µM in data set [1], 12.5 µM in data set [2], 50 µM in data set [3] and 12.5 µM in data set [4]. Moreover, the minimum inhibitory concentration (MIC) was 25 µM in data set [1], 12.5 µM in data set [2], 50 µM in data set [3] and 12.5 µM in data set [4].

In the case of ALWKTLLKKVGPVAGKAVLNAVTNMANQN [K12P], the MBC in data set [1] was 12.5 µM; in data set [2] it was 6.3 µM; in data set [3], more than 50 µM; in data set [4] it was 6.3 µM. Moreover, the MIC in data set [1] is listed as 12.5 µM; in data set [2], 6.3 µM; in data set [3], more than 50 µM; in data set [4], 6.3 µM.

With ALWKTLLKKVGAVAGKAVLNAVTNMANQN [K12A], the MBC in data set [1] is on record as 6.3 µM; in data set [2], 6.3 µM; in data set [3], 12.5 µM; in data set [4] it was 1.6 µM. In addition, the MIC in data set [1] was 6.3 µM; in data set [2] it was 3.1 µM; in data set [3], 12.5 µM; in data set [4], 1.6 µM. Also, in data set [5], the CC50 at 2 hours amounted to 6.5 µM.

With ALWKTLLKKVGKVAGKAVLNAVTNAANQN [M25A], the minimum bactericidal concentration (MBC) in data set [1] was determined as 3.1 µM; in data set [2] it was 3.1 µM; in data set [3], 12.5 µM; in data set [4], 0.8 µM. The MIC is given as 3.1 µM in data set [1], 3.1 µM in data set [2], 12.5 µM in data set [3] and 0.8 µM in data set [4].

Turning to Gramicidin [reference compound], the MBC in data set [1] is given as more than 100 µM; in data set [2], more than 50 µM; in data set [3] it was 0.8 µM; in data set [4], more than 100 µM. In addition, the MIC in data set [1] was more than 100 µM; in data set [2] it was more than 50 µM; in data set [3], 0.8 µM; in data set [4] it was more than 100 µM.

For `CSCC[C@@H](NC(=O)[C@@H](CC(N)=O)NC(=O)[C@H](NC(=O)[C@H](NC(=O)[C@@H](C)NC(=O)[C@@H](CC(N)=O)NC(=O)[C@@H](CC(C)C)NC(=O)[C@H](NC(=O)[C@@H](C)NC(=O)[C@@H](CCCCN)NC(=O)CNC(=O)[C@@H](C)NC(=O)[C@H](NC(=O)[C@@H](CCCCN)NC(=O)CNC(=O)[C@H](NC(=O)[C@@H](CCCCN)NC(=O)[C@@H](CCCCN)NC(=O)[C@@H](CC(C)C)NC(=O)[C@@H](CC(C)C)NC(=O)[C@H](NC(=O)[C@@H](CCCCN)NC(=O)[C@@H](Cc1c[nH]c2ccccc12)NC(=O)[C@@H](CC(C)C)NC(=O)[C@@H](C)N)[C@H](C)O)C(C)C)C(C)C)C(C)C)C(C)C)[C@H](C)O)C(=O)N[C@H](C)C(=O)N[C@H](CC(N)=O)C(=O)N[C@H](CCC(N)=O)C(=O)N[C@H](CC(N)=O)C(=O)O` [DA2N (D), dAdLdWdKdTdLdLdKddKdVdGdKdVdAdGdKdAdVdLdNdAdVdTdNdMdAdNdQdN] (H-[dA][dL][dW][dK][dT][dL][dL][dK][dK][dV]G[dK][dV][dA]G[dK][dA][dV][dL][dN][dA][dV][dT][dN][dM][dA][dN][dQ][dN]-OH; N-terminus and C-terminus assumed), the MBC was determined as 0.8 µM (≈ 2.47 µg/mL) in data set [1], 0.8 µM (≈ 2.47 µg/mL) in data set [2], 3.1 µM (≈ 9.55 µg/mL) in data set [3] and 0.8 µM (≈ 2.47 µg/mL) in data set [4]. Also, the MIC in data set [1] is recorded as 0.8 µM (≈ 2.47 µg/mL); in data set [2], 0.8 µM (≈ 2.47 µg/mL); in data set [3] it was 3.1 µM (≈ 9.55 µg/mL); in data set [4], 0.4 µM (≈ 1.23 µg/mL). In data set [6], the “death of immune cells” value was “induce the death of immune cells at a concentration of 12.5 µM with a comparable efficacy to DA2N”.

Regarding ALWKTLAKKVGKVAGKAVLNAVTNMANQN [L7A], the MBC in data set [1] stood at 1.6 µM; in data set [2], 3.1 µM; in data set [3], 6.3 µM; in data set [4], 0.8 µM. For the same compound, the MIC is recorded as 1.6 µM in data set [1], 3.1 µM in data set [2], 6.3 µM in data set [3] and 0.8 µM in data set [4].

Take ALWKTLLKKVGKAAGKAVLNAVTNMANQN [V13A]: the MBC in data set [1] amounted to 6.3 µM; in data set [2], 12.5 µM; in data set [3] it was 50 µM; in data set [4] it was 1.6 µM. Further, the MIC in data set [1] amounted to 6.3 µM; in data set [2], 6.3 µM; in data set [3], 50 µM; in data set [4], 1.6 µM.

As to `CSCC[C@@H](NC(=O)[C@@H](CC(N)=O)NC(=O)[C@H](NC(=O)[C@H](NC(=O)[C@@H](C)NC(=O)[C@@H](CC(N)=O)NC(=O)[C@@H](CC(C)C)NC(=O)[C@H](NC(=O)[C@@H](C)NC(=O)[C@@H](CCCCN)NC(=O)CNC(=O)[C@@H](C)NC(=O)[C@H](NC(=O)[C@@H](CCCCN)NC(=O)CNC(=O)[C@H](NC(=O)[C@@H](CCCCN)NC(=O)[C@@H](CCCCN)NC(=O)[C@@H](CC(C)C)NC(=O)[C@@H](CC(C)C)NC(=O)[C@H](NC(=O)[C@@H](CCCCN)NC(=O)[C@@H](Cc1c[nH]c2ccccc12)NC(=O)[C@@H](CC(C)C)NC(=O)[C@@H](C)N)[C@H](C)O)C(C)C)C(C)C)C(C)C)C(C)C)[C@H](C)O)C(=O)N[C@H](C)C(=O)N[C@H](CC(N)=O)C(=O)N[C@H](CCC(N)=O)C(=O)N[C@H](CC(N)=O)C(=O)N[C@H](CCC(=O)O)C(=O)N[C@H](CCC(N)=O)C(=O)O` [DA2NEQ (D), dAdLdWdKdTdLdLdKdKdVdGdKdVdAdGdKdAdVdLdNdAdVdTdNdMdAdNdQdNdEdQ] (H-[dA][dL][dW][dK][dT][dL][dL][dK][dK][dV]G[dK][dV][dA]G[dK][dA][dV][dL][dN][dA][dV][dT][dN][dM][dA][dN][dQ][dN][dE][dQ]-OH; N-terminus and C-terminus assumed), the MBC in data set [1] is 3.1 µM (≈ 10.4 µg/mL); in data set [2], 1.6 µM (≈ 5.34 µg/mL); in data set [3], 12.5 µM (≈ 41.7 µg/mL); in data set [4], 0.8 µM (≈ 2.67 µg/mL). Further, the MIC in data set [1] was 1.6 µM (≈ 5.34 µg/mL); in data set [2], 1.6 µM (≈ 5.34 µg/mL); in data set [3], 12.5 µM (≈ 41.7 µg/mL); in data set [4], 0.8 µM (≈ 2.67 µg/mL).

For the compound ALWKTLLKKVGKVDGKAVLNAVTNMANQN [A14D], the MBC in data set [1] was more than 50 µM; in data set [2] it was more than 50 µM; in data set [3] it was more than 50 µM; in data set [4], 6.3 µM. Moreover, the MIC is listed as 50 µM in data set [1], more than 50 µM in data set [2], more than 50 µM in data set [3] and 6.3 µM in data set [4].

With ALWKTLLKKVGKVKGKAVLNAVTNMANQN [A14K], the MBC is 12.5 µM in data set [1], 50 µM in data set [2], more than 50 µM in data set [3] and 1.6 µM in data set [4]. Also, the minimal inhibitory concentration (MIC) is listed as 12.5 µM in data set [1], 25 µM in data set [2], more than 50 µM in data set [3] and 1.6 µM in data set [4].
